Each block holds one molecule with its values, some of them ahead of it.
Experiments:
CYP2A6 = CYP2A6 (Homo sapiens, UniProt P11509); details: Tranylcypromine 3 μM
CYP2C19 = CYP2C19 (Homo sapiens, UniProt P33261); experiment: in vitro; details: both, pooled cryopreserved human hepatocytes in suspension, probe S-mephenytoin (20 μM)
CYP1A2 = CYP1A2 (Homo sapiens, UniProt P05177); experiment: in vitro; details: both, hepatocytes
Excerpt: CYP1A2 activity was characterized by the formation of acetaminophen from phenacetin.

CYP2C9 [1] = target: T1, CYP2C9 (Homo sapiens, UniProt P11712); details: Sulfaphenazole 10 μM
T1 sequence (P11712 whole entry): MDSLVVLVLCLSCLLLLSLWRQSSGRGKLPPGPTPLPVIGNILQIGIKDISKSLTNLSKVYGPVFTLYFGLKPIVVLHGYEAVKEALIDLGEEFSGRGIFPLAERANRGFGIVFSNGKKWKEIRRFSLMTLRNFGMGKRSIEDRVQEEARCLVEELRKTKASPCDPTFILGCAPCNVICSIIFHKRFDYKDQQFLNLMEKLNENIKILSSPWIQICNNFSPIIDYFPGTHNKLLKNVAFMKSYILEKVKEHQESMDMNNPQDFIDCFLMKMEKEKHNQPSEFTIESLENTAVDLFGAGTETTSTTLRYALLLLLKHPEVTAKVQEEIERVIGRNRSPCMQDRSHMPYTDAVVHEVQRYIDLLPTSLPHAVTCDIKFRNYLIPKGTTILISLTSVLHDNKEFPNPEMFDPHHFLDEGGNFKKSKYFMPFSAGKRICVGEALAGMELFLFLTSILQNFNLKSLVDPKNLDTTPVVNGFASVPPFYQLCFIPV

CYP2C9 [2] = target: T1, CYP2C9; experiment: in vitro; details: both, hepatocytes

Chain of CYP2C19 (P33261 whole entry): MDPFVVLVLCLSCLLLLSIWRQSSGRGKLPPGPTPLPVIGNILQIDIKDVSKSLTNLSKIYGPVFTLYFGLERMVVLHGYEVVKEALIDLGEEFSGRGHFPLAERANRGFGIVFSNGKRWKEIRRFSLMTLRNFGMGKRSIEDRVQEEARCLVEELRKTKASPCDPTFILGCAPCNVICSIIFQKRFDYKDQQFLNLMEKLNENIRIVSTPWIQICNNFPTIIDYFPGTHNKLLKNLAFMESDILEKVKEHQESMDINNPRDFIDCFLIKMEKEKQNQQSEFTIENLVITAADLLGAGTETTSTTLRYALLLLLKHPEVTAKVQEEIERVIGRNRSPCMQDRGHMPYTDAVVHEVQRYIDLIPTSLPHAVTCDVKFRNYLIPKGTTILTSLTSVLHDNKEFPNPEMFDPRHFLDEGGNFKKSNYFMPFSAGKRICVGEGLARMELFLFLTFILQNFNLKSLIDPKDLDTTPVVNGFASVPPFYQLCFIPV
Chain of CYP1A2 (P05177 whole entry): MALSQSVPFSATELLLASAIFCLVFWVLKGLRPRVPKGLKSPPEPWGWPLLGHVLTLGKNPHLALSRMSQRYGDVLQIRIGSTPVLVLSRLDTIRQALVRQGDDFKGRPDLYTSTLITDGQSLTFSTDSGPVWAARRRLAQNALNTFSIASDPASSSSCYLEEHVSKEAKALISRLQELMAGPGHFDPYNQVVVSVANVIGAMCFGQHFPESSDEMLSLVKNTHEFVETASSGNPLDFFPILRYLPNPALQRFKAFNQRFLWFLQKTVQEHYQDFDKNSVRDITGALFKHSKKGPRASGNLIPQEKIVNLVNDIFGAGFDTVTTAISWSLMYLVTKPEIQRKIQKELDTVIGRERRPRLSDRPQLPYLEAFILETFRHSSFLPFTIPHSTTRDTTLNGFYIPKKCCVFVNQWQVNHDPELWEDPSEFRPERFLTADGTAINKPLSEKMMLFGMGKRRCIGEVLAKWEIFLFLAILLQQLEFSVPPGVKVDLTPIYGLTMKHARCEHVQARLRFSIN
Chain of CYP2A6 (P11509 whole entry): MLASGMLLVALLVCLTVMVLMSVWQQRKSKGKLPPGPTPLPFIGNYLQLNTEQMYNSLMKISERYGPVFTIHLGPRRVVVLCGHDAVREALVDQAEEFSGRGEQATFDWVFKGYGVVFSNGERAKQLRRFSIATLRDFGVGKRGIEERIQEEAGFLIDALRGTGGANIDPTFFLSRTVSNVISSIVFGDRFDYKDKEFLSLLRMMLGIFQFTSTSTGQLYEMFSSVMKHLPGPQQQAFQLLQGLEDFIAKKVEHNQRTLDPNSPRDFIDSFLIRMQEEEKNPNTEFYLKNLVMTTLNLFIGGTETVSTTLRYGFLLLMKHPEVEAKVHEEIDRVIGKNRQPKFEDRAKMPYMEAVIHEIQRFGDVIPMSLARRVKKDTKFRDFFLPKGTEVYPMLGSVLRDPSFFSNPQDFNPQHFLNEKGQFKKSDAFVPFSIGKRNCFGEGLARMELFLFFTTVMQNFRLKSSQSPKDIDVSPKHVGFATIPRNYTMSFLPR

SMILES: N[C@@H]1C[C@H]1c1ccccc1 (racemic) [Tranylcypromine, tranylcypromine]
CYP2A6 % Inhibition (CYP2A6): 64.1%
CYP2A6 activity % VC (CYP2A6): 35.9%

activity at 60 min, 25 μM (CYP2C19): 73.6%
inhibition at 60 min, 25 μM (CYP2C19): 26.4%
SMILES: COc1ccc2[nH]c([S+]([O-])Cc3ncc(C)c(OC)c3C)nc2c1 (centres unmarked) [Omeprazole, omeprazole]

activity at 60 min, 1 μM (CYP1A2): 27.9%
inhibition at 60 min, 1 μM (CYP1A2): 72.1%
SMILES: Cc1nc2c([nH]1)c(=O)n(C)c(=O)n2Cc1ccco1 [Furafylline, furafylline]

SMILES: Nc1ccc(S(=O)(=O)Nc2ccnn2-c2ccccc2)cc1 [Sulfaphenazole, sulfaphenazole]
CYP2C9 % Inhibition (CYP2C9 [1]): 95.0%
activity at 60 min, 10 μM (CYP2C9 [2]): 5.02%
